Test results taken from patent publication US7662844B2, “Naphthylene derivatives as cytochrome P450 inhibitors” (OSI Pharmaceuticals, Inc., priority 2004, dated 2010).

melting point [°C] | SMILES
124 to 126 | CN1CCCC1C(c1ccc2cc(OCc3ccccc3)ccc2c1)n1ccnc1 (single isomer, unassigned) [Example 3-30a, 1-[(6-Benzyloxy-naphthalen-2-yl)-(1-methyl-pyrrolidin-2-yl)-methyl]-1H-imidazole]
110 to 112 | CN1CCCC1C(c1ccc2cc(OCc3ccccc3)ccc2c1)n1ccnc1 (single isomer, unassigned) [Example 3-30b, 1-[(6-Benzyloxy-naphthalen-2-yl)-(1-methyl-pyrrolidin-2-yl)-methyl]-1H-imidazole]
